Source: publication PMC12624727, “Benzodeazaoxaflavin Sirtuin Inhibitors Inhibit Schistosoma mansoni Sirt2 and Cause Phenotypic Changes and Lethality in Schistosomula and Adult Worm Stages” (ACS Infectious Diseases, 2025)
Like-named read-outs stand apart in the source and are kept apart here.

Legend:
[1] = target: SmSirt2 (Schistosoma mansoni, UniProt T1VXA1); assay: In vitro SmSirt2 inhibition assay, homogeneous fluorescence-based, ZMAL substrate; assay type: biochemical; details: for IC50: read-out: IC50 SmSirt2, ZMAL substrate
Chain of SmSirt2 (T1VXA1 entry or part of it): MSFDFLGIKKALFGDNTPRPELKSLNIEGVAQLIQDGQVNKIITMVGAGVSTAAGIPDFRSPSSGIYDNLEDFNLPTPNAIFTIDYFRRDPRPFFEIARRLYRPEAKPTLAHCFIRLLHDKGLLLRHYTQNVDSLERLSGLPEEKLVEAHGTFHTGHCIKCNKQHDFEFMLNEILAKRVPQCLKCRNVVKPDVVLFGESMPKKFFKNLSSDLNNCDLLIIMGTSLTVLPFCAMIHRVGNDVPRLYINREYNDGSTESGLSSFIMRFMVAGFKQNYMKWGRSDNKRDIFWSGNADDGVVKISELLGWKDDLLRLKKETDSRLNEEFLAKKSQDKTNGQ
Experimental: We first improved the synthetic method to obtain most of the BDFs analogues 1–12 (Figure ), and we tested them against recombinant SmSirt2 using a homogeneous, fluorescent-based in vitro assay with (Z)-(Ac)-Lys-7-amino-4-methylcoumarin (ZMAL) as the substrate.
The BDF4 compounds 1–12 were tested for their inhibitory activity against SmSirt2 using a fluorescence-based assay with ZMAL as the substrate. Their activity against hSirt2 has been previously reported. ,
For the screening of compounds 1–12, a homogeneous fluorescence-based assay previously described by some of us was used to determine SmSirt2 activity.

[2] = test system: S. mansoni newly transformed schistosomula (NTS), Liberian strain; assay: NTS (Liberian strain) in vitro viability assay; assay type: cell-based, Schistosoma mansoni; details: for percentage of reduction of NTS viability, 72 h: SD in brackets; for IC50: 72 h, Liberian strain
[3] = test system: hSirt2; details: cited from earlier work
[4] = test system: cytochrome c release in S. mansoni (Puerto Rican strain) worms; assay: Western blot of cytosolic cytochrome c in worm extracts; assay type: cell-based, Schistosoma mansoni; details: 1 μM, 24 h (legend of Figure 5)
Experimental: To determine if the Sirt2 inhibitors trigger apoptosis through the cytochrome c pathway, we examined cytochrome c release from mitochondria.
5 Effects of selected Sirt2 inhibitors on cytosolic cytochrome c expression. Representative immunoblots of cytosolic protein fractions extracted from S. mansoni adult worm pairs are shown. The worms were treated with the indicated Sirt2 inhibitors (10 μM) for 48 h. DMSO (vehicle), TSA (1 μM, 24 h), a HDAC pan-inhibitor, and salermide (Sal 25 μM, 48 h), a Sirt1/Sirt2 inhibitor, were used as controls. The α-tubulin signal was used for normalization. Quantitation of cytochrome c relative to the vehicle-treated sample is shown.
Ten pairs of adult parasites were treated with selected Sirt inhibitors for either 24 or 48 h at partially lethal and sublethal concentrations. The concentrations of compounds were chosen based on the viability curve. Positive controls in the experiments included TSA, a pan-HDAC inhibitor, and salermide, a hSirt1/2 inhibitor, while DMSO (vehicle) served as negative control. Parasites were lysed in a 0.5% Triton PBS buffer by strokes, and the lysates were then centrifuged to collect the soluble fractions (cytosol). The insoluble fractions were extracted with 0.25 N HCl at +4 °C for 18 h, followed by neutralization with 1/10 volume of 2 N NaOH. Samples were analyzed using 15% SDS-PAGE and Western blotting. […]

[5] = test system: adult S. mansoni (Liberian strain) worm pairs; assay: Adult worm (Liberian strain) in vitro viability assay; assay type: cell-based, Schistosoma mansoni; details: for adult worms' percentage of viability reduction, 72 h: SD in brackets; for IC50: Schistosoma mansoni, 72 h, Liberian strain
[6] = test system: S. mansoni (Puerto Rican) worm pairs; assay: Worm pairing of adult worm pairs (Puerto Rican strain); assay type: cell-based, Schistosoma mansoni; details: % of DMSO control
[7] = test system: S. mansoni (Puerto Rican) worm pairs; assay: Egg laying by adult worm pairs (Puerto Rican strain); assay type: cell-based, Schistosoma mansoni; details: % of DMSO control
[8] = test system: adult S. mansoni (Puerto Rican strain) worm pairs; details: for reduction of viability of adult worm pairs: concentration not given, Puerto Rican strain; for viability of adult worm pairs after recovery: both, Puerto Rican, Schistosoma mansoni
[9] = ref footnote b (reference number not given)

| Compound | IC50 [1] [µM] | percentage of reduction of NTS viability, 72 h ([2]; 20 μM) | IC50 [3, 9] [µM] | percentage of reduction of NTS viability, 72 h ([2]; 0.1 μM) | percentage of reduction of NTS viability, 72 h ([2]; 1 μM) | percentage of reduction of NTS viability, 72 h ([2]; 10 μM) | IC50 [2] [µM] | IC50 ([2]; Schistosoma mansoni) [µM] | adult worms' percentage of viability reduction, 72 h ([5]; 20 μM) | IC50 [5] [µM] | % worm pairing ([6]; 1 μM, 24 h, single experiment) [%] | % worm pairing ([6]; 1 μM, 48 h, single experiment) [%] | % worm pairing ([6]; 1 μM, 72 h, single experiment) [%] | % worm pairing ([6]; 10 μM, 24 h, SD in brackets) | % worm pairing ([6]; 10 μM, 48 h, SD in brackets) | % worm pairing ([6]; 10 μM, 72 h, SD in brackets) | % worm pairing ([6]; 20 μM, 24 h, SD in brackets) | % worm pairing ([6]; 20 μM, 48 h, SD in brackets) | % worm pairing ([6]; 20 μM, 72 h, SD in brackets) | % egg laying ([7]; 1 μM, 24 h, single experiment) [%] | further results |
| --- | --- | --- | --- | --- | --- | --- | --- | --- | --- | --- | --- | --- | --- | --- | --- | --- | --- | --- | --- | --- | --- |
| CCCCn1c(=O)nc2oc3ccc4ccccc4c3cc-2c1=O [Compound 6, 10-Butyl-9H-benzo[5,6]chromeno[2,3-d]pyrimidine-9,11(10H)-dione] | 7.8 ± 0.8 | 34 (1) % | 16.9 ± 0.8 |  |  |  |  |  |  |  |  |  |  |  |  |  |  |  |  |  |  |
| CC(/C=C/C(=O)NO)=C\[C@@H](C)C(=O)c1ccc(N(C)C)cc1 [TSA] |  |  |  |  |  |  |  |  |  |  |  |  |  |  |  |  |  |  |  |  | cytosolic cytochrome c level [4]: increased levels of cytochrome c |
| C=CCn1c(=O)nc2oc3ccc4ccccc4c3cc-2c1=O [Compound 4, 10-Allyl-9H-benzo[5,6]chromeno[2,3-d]pyrimidine-9,11(10H)-dione] |  | 100 (0) % | 10.8 ± 0.3 | 20 (0) % | 100 (0) % | 100 (0) % | 0.12 | ~0.1 | 94.4 (0) % | 2.03 | 100 | 100 | 100 | 90 (14) % | 90 (14) % | 90 (14) % | 0 (0) % | 20 (0) % | 60 (0) % | 72 | inhibition at 50 µM [1]: 53.9%; adult worms' percentage of viability reduction, 72 h ([5]; 1 μM): 40.7 (3.7) %; % egg laying ([7]; 1 μM, 48 h, single experiment): 68%; % egg laying ([7]; 1 μM, 72 h, single experiment): 95%; % egg laying ([7]; 10 μM, 24 h, SD in brackets): 61(6) %; % egg laying ([7]; 10 μM, 48 h, SD in brackets): 82 (12) %; % egg laying ([7]; 10 μM, 72 h, SD in brackets): 79 (19) %; % egg laying ([7]; 20 μM, 24 h, SD in brackets): 11 (6) %; % egg laying ([7]; 20 μM, 48 h, SD in brackets): 7 (5) %; reduction of viability of adult worm pairs ([8]; 24 h): approximately 80%; viability of adult worm pairs after recovery ([8]; 72 h): 50% |
| Cn1c(=O)nc2oc3ccc4ccccc4c3cc-2c1=O [Compound 2, 10-Methyl-9H-benzo[5,6]chromeno[2,3-d]pyrimidine-9,11(10H)-dione] | 2.3 ± 0.1 | 85.7 (3.6) % | 11.2 ± 0.3 | 20.8 (0) % | 43.8 (2.1) % | 61.5 (3.8) % |  | 1.5 | 82.1 (3.6) % | > 10 |  |  |  |  |  |  |  |  |  |  | adult worms' percentage of viability reduction, 72 h ([5]; 10 μM): 37.3 (3.9) % |
| CCCn1c(=O)nc2oc3ccc4ccccc4c3cc-2c1=O [Compound 5, 10-Propyl-9H-benzo[5,6]chromeno[2,3-d]pyrimidine-9,11(10H)-dione] | 8 ± 0.7 | 100 (0) % | 12.5 ± 0.5 | 24 (0) % | 100 (0) % | 100 (0) % | 0.12 | ~0.1 | 91.7 (2.8) % | 3.35 | 100 | 100 | 100 | 90 (14) % | 100 (14) % | 100 (14) % | 0 (0) % | 10 (14) % | 0 (0) % | 104 | adult worms' percentage of viability reduction, 72 h ([5]; 1 μM): 25.9 (3.7) %; % egg laying ([7]; 1 μM, 48 h, single experiment): 94%; % egg laying ([7]; 1 μM, 72 h, single experiment): 144%; % egg laying ([7]; 10 μM, 24 h, SD in brackets): 55 (15) %; % egg laying ([7]; 10 μM, 48 h, SD in brackets): 73 (33) %; % egg laying ([7]; 10 μM, 72 h, SD in brackets): 75 (7) %; % egg laying ([7]; 20 μM, 24 h, SD in brackets): 12 (16) %; % egg laying ([7]; 20 μM, 48 h, SD in brackets): 11 (14) %; % egg laying ([7]; 20 μM, 72 h, SD in brackets): 13 (10) %; reduction of viability of adult worm pairs ([8]; 24 h): approximately 80%; viability of adult worm pairs after recovery ([8]; 72 h): 40% |
| O=C1NC(=O)N(c2ccccc2)C(=O)/C1=C/c1c(O)ccc2ccccc12 [Compound 10] |  |  |  |  |  |  |  |  |  |  |  |  |  |  |  |  |  |  |  |  | inhibition at 50 µM [1]: 3.5%; inhibition of SmSirt2 in words [1]: failed to inhibit; % inhibition at 50 μM hSirt2 ([3]; 50 μM, ref footnote a (reference number not given)): 0.7% ^a; inhibition of hSirt2 in words ([3]; ref not printed (previously reported)): failed to inhibit |
| O=c1nc2oc3ccc4ccccc4c3cc-2c(=O)[nH]1 [Compound 1, 7-Oxa-8,10-Diazabenzo[a]anthracene-9,11-dione] | 3.8 ± 0.3 | 100 (0) % |  | 16.7 (0) % | 90 (1.7) % | 100 (0) % | 0.25 | ~0.2 | 85.7 (7.2) % | > 10 | 100 | 100 | 100 | 100 (0) % | 100 (0) % | 100 (0) % | 100 (0) % | 100 (0) % | 100 (0) % | 79 | selectivity toward SmSIRT2 over the human isoform ([1]; SmSirt2 vs hSirt2): selectively active against the parasite enzyme; adult worms' percentage of viability reduction, 72 h ([5]; 10 μM): 27.5 (2) %; % egg laying ([7]; 1 μM, 48 h, single experiment): 90%; % egg laying ([7]; 1 μM, 72 h, single experiment): 116%; % egg laying ([7]; 10 μM, 24 h, SD in brackets): 93 (27) %; % egg laying ([7]; 10 μM, 48 h, SD in brackets): 97 (14) %; % egg laying ([7]; 10 μM, 72 h, SD in brackets): 122 (14) %; % egg laying ([7]; 20 μM, 24 h, SD in brackets): 56 (22) %; % egg laying ([7]; 20 μM, 48 h, SD in brackets): 75 (19) %; % egg laying ([7]; 20 μM, 72 h, SD in brackets): 109 (47) %; reduction of viability of adult worm pairs ([8]; 72 h): 20%; IC50 ([3]; ref footnote a (reference number not given)): > 50 µM |
| CCn1c(=O)nc2oc3ccc4ccccc4c3cc-2c1=O [Compound 3, 10-Ethyl-9H-benzo[5,6]chromeno[2,3-d]pyrimidine-9,11(10H)-dione] | 12.6 ± 2.2 | 100 (0) % | 30 ± 1.2 |  | 40 (0) % | 100 (0) % |  | 1.03 | 80.3 (5.4) % | > 10 |  |  |  |  |  |  |  |  |  |  | adult worms' percentage of viability reduction, 72 h ([5]; 10 μM): 49 (0) % |
